According to patent publication US8986946B2, “Real-time method for the detection of viable micro-organisms” (Nederlandse Organisatie Voor …, priority 2007, dated 2015):

Assays:
[1] = test system: Staphylococcus aureus ATCC 6538; test: Real-time viability assay, uptake of the phototautomeric compound followed by fluorescence; assay type: cell-based; details: for uptake by bacteria: 50 μM compound in 100 mM potassium phosphate buffer pH 2 (FIG. 6); for rise in fluorescence after addition of the compound, viable vs nonviable cells: 50 μM compound, 100 mM potassium phosphate buffer pH 2, added at t=20 seconds
Procedure: (§1) A solution of 100 μl containing 50 μM compound in 100 mM potassium phosphate buffer pH 7 is used for recording the excitation and emission wavelengths in a Tecan microplate fluorometer. The ratio of emission intensity at pH 7.5 and 1 as well as the ratio of emission intensity at pH 7 and 2 (indicated by the asterisk) was recorded with 100 μl solution containing 50 μM compound in 100 mM potassium phosphate buffer pH 2 or 7 in a Tecan microplate fluorometer at optimal excitation wavelength. Uptake of compounds by viable and nonviable (heat-inactivated for 5 minutes at 95° C.) Staphylococcus aureus ATCC 6538 and Sachromyces serervisiae ATCC 9763 cells is real-time monitored in a Tecan microplate fluorometer at optimal excitation and emission wavelengths. A solution of 50 μM compound in 100 mM potassium phosphate buffer pH2 was added to 100 μl cell suspensions at t=20 seconds, uptake of compound was monitored for 180 seconds.
(§2) A solution of 100 μl containing 50 μM o-hydroxycinnamic acid, 100 mM potassium phosphate buffer pH 2, was added at t=20 seconds, as indicated by the arrow.
(§3) Typical real-time viability assay. Staphylococcus aureus strain ATCC 6538 is cultured overnight at 100 RPM at 37° C. in 10-ml of a rich trypticase soy broth (TSB) medium. A culture volume of 5 ml is centrifuged at 2000 RPM for 10 min and resuspended in 2 ml of physiological salt solution (peptone, 0.9% NaCl) followed by an OD600 measurement. A culture suspension of 1 ml is heat-inactivated by incubation at 95° C. for 5 min. (nonviable control cell suspension). A volume of 100 μl of a viable and a nonviable cell suspension is pipetted in separate wells of a polystyrene 96-well, flat-bottom microtiter plate. Subsequently, fluorescence emission kinetics (excitation wavelength 290 nm; emission wavelength 402 nm) are monitored for 500 seconds with a time interval of 200 ms, number of reads 5. […] Hereafter, the fluorescence signal decays on a minute time-scale as a result of the loss of membrane integrity or cell viability. […] From 60.2 seconds the signal will remain constant as the membrane is permeable in nonviable cells allowing quenching of fluorescence by acidification of the intracellular environment.

[2] = test system: Saccharomyces cerevisiae ATCC 9763; test: as above; assay type: cell-based; details: for uptake by yeast: 50 μM compound in 100 mM potassium phosphate buffer pH 2 (FIG. 6)
Procedure: as §1, §2
Real-time viability assay for various micro-organisms. Bacterial and yeast strains were cultured overnight at 37° C. at 100 RPM in 10-ml of a rich trypticase soy broth (TSB) medium. A culture volume of 5 ml is centrifuged at 2000 RPM for 10 min and resuspended in 2 ml of physiological salt solution (peptone, 0.9% NaCl) followed by an OD600 measurement. The yeast strains include Candida albicans ATCC 10231, Saccharomyces cereuisiae ATCC9763 and the bacterial strains include A Staphylococcus aureus strain ATCC 6538, Enterobacter cloacae LMG 2783, Escherichia coli ATCC 10536, Bacillus subtilis DSM618 and Pseudomonas aeruginosa ATCC27853. The assay is carried out as specified above for Staphylococcus aureus. […] Accordingly, quantification of the number of viable cells of the yeast and other fungal strains should occur on the basis of increase of fluorescence over the measured period of time.

[3] = test system: yeast (and other fungal) strains: Candida albicans ATCC 10231, Saccharomyces cereuisiae ATCC9763; test: Real-time viability assay for various micro-organisms (yeast strains); assay type: cell-based, Saccharomyces cerevisiae; details: 100 mM potassium phosphate buffer pH 2
Procedure: as §3, with “environment. Real-time viability assay for various micro-organisms. Bacterial and yeast strains were cultured overnight at 37° C. at 100 RPM in 10-ml of a rich trypticase soy broth (TSB) medium. A culture volume of 5 ml is centrifuged at 2000 RPM for 10 min and resuspended in 2 ml of physiological salt solution (peptone, 0.9% NaCl) followed by an OD600 measurement. The yeast strains include Candida albicans ATCC 10231, Saccharomyces cereuisiae ATCC9763 and the bacterial strains include A Staphylococcus aureus strain ATCC 6538, Enterobacter cloacae LMG 2783, Escherichia coli ATCC 10536, Bacillus subtilis DSM618 and Pseudomonas aeruginosa ATCC27853. The assay is carried out as specified above for Staphylococcus aureus. […] Accordingly, quantification of the number of viable cells of the yeast and other fungal strains should occur on the basis of increase of fluorescence over the measured period of time.” for “environment.”

[4] = test system: Saccharomyces cerevisiae ATCC 9763; test: Real-time viability assay, uptake of the phototautomeric compound followed by fluorescence; assay type: cell-based; details: 2 mM salicylic acid, pH 2

For `Nc1cc2ccccc2cc1C(=O)O` [3-amino-2-napthoic acid], the uptake by bacteria [1] was “taken up by both bacteria and yeast” and the uptake by yeast [2] was “taken up by both bacteria and yeast”.
In the case of `Cn1c(=O)n(C)c2cc(C(=O)O)c(N)cc21` [6-amino-1,3-dimethyl-2-oxo-2,3-dihydro-1H-benzoimidazole-5-carboxylic acid], the “rise in fluorescence after addition of the compound, viable vs nonviable cells” value (“rise in fluorescence … vs nonviable cells” for short) ([2]; 50 μM compound, 100 mM potassium phosphate buffer pH 2, added at t=20 seconds) is reported as “only observed for viable Saccharomyces cereuisiae cells”.
For `Nc1ccc(O)c(C(=O)O)c1` [5-amino salicylic acid], the uptake by yeast [2] was “hardly taken up by yeast”.
With `Nc1ccc(C(=O)O)c(O)c1` [4-amino salicylic acid] the uptake by yeast [2] was “hardly taken up by yeast”.
With `O=C(O)c1ccc2ccccc2c1O` [1H-2NA, 1-hydroxy-2-naphtoic acid] the uptake by bacteria [1] was “taken up by both bacteria and yeast”, the uptake by yeast [2] was “taken up by both bacteria and yeast” and the “accumulation of the compound by yeast (and other fungal) strains” value (“accumulation of the compound by yeast” below) [3] was “relatively slowly”. The “decay of fluorescent signal in yeast (and other fungal) strains” value (shortened to “decay of fluorescent signal in yeast”) [3] was “no decay of fluorescent signal”.
`O=C(O)C=Cc1ccccc1O` [o-hydroxycinnamic acid] was tested, and the “rise in fluorescence … vs nonviable cells” value [1] was “only observed for viable Staphylococcus aureus cells” and the uptake by yeast [2] was “hardly taken up by yeast”.
`O=C(O)c1ccc(O)cc1O` [4-hydroxy salicylic acid] was tested, and the uptake by yeast [2] was “hardly taken up by yeast”.
In the case of `O=C(O)c1c(O)ccc2ccccc12` [2H-1NA, 2-hydroxy-1-naphtoic acid], the “accumulation of the compound by yeast” value [3] is reported as “relatively slowly” and the “decay of fluorescent signal in yeast” value [3] is reported as “no decay of fluorescent signal”.
With `O=C(O)c1cc2oc3ccccc3c2cc1O` [S350729] the uptake by bacteria [1] was “taken up by both bacteria and yeast” and the uptake by yeast [2] was “taken up by both bacteria and yeast”.
For `O=C(O)c1ccccc1O` [salicylic acid], the uptake by bacteria [1] was “taken up by both bacteria and yeast”, the “time constant of the acidification process” value ([1]; 2 mM salicylic acid, 100 mM potassium phosphate buffer pH 2) was 0.005 s⁻¹ and the “time scale of the rapid rise in fluorescence (transfer from the extracellular to the intracellular medium)” value ([1]; 100 μl of 2 mM salicylic acid, 100 mM potassium phosphate buffer pH 2, injected at 60 seconds) was less than 200 ms. The “uptake of salicylic acid by the bacteria (time)” value ([1]; stationary culture, 2 mM salicylic acid, 100 mM potassium phosphate buffer pH 2) was “within seconds”, the uptake by yeast [2] was “taken up by both bacteria and yeast” and the “accumulation of the compound by yeast” value [3] was “relatively slowly”. For the same compound, the “decay of fluorescent signal in yeast” value [3] was “no decay of fluorescent signal” and the “permeability of the cell membrane to the compound, compared with bacteria” value [4] was “less-permeable”.
For `O=C(O)c1cc(O)ccc1O` [gentisic acid, 2,5-dihydroxybenzoic acid], the “rise in fluorescence … vs nonviable cells” value [1] was “only observed for viable Staphylococcus aureus cells”.
